ChEMBL document CHEMBL5727849, “Piperidinone formyl peptide 2 receptor and formyl peptide 1 receptor agonists” (2020)

Key:
[1] = target: T1, fMet-Leu-Phe receptor (Homo sapiens, UniProt P21462); assay: (§1) cAMP Assay: FPR2 and FPR1 Cyclic Adenosine Monophosphate (cAMP) Assays. A mixture of forskolin (5 μM final for FPR2 or 10 μM final for FPR1) and IBMX (200 μM final) were added to 384-well Proxiplates (Perkin-Elmer) pre-dotted with test compounds in DMSO (1% final) at final concentrations in the range of 0.020 nM to 100 μM. Chinese Hamster Ovary cells (CHO) overexpressing human FPR1 or human FPR2 receptors were cultured in F-12 (Ham's) medium supplemented with 10% qualified FBS, 250 μg/ml zeocin and 300 μg/ml hygromycin (Life Technologies). Reactions were initiated by adding 2,000 human FPR2 cells per well or 4,000 human FPR1 cells per well in Dulbecco's PBS (with calcium and magnesium) (Life Technologies) supplemented with 0.1% BSA (Perkin-Elmer). The reaction mixtures were incubated for 30 min at room temperature. The level of intracellular cAMP was determined using the HTRF HiRange cAMP assay reagent kit (Cisbio) according to manufacturer's instruction. Solutions of cryptate conjugated anti-cAMP and d2 flurorophore-labelled cAMP were made in a supplied lysis buffer separately. Upon completion of the reaction, the cells were lysed with equal volume of the d2-cAMP solution and anti-cAMP solution. After a 1-h room temperature incubation, time-resolved fluorescence intensity was measured using the Envision (Perkin-Elmer) at 400 nm excitation and dual emission at 590 nm and 665 nm.; assay type: cell-based
T1 sequence (P21462 whole entry): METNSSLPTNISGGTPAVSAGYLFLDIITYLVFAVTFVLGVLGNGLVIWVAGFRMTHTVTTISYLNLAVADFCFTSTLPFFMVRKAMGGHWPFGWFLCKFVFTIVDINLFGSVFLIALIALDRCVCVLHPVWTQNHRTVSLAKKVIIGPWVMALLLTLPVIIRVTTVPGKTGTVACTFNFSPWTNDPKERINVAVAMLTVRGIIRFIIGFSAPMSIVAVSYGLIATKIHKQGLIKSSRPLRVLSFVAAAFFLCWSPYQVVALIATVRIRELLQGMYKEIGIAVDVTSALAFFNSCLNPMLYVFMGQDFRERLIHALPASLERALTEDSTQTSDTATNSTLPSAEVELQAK

[2] = target: T2, N-formyl peptide receptor 2 (Homo sapiens, UniProt P25090); assay: as §1; assay type: cell-based
T2 sequence (P25090 whole entry): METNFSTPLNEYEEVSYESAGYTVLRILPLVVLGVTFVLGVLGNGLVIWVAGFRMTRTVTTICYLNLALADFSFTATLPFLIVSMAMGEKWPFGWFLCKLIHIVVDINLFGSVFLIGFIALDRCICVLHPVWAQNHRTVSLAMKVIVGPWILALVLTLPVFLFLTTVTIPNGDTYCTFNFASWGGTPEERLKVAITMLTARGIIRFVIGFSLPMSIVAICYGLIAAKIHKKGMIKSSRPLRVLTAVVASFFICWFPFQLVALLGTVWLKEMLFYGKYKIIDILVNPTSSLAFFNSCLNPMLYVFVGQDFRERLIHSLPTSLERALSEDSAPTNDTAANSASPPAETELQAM

Row | Structure (SMILES) | EC50 [1] [nM] | EC50 [2] [nM]
1 | O=C(Nc1ccc(Cl)cc1)N[C@@H]1CCCN(c2ccc(-c3c(Cl)cccc3Cl)cc2)C1=O | 14 | 11
2 | NC(=O)c1ccccc1-c1ccc(N2CCC[C@@H](NC(=O)Nc3ccc(F)c(F)c3)C2=O)cc1 | 1700 | 840
